ChEMBL document CHEMBL4507259 (2021)

Legend:
[1] = biological target: Serine/threonine-protein kinase 32B (Homo sapiens) (UniProt Q9NY57); settings: Compound concentration 1000.0 nM
[2] = biological target: Receptor tyrosine-protein kinase erbB-4 (Homo sapiens) (UniProt Q15303); settings: Compound concentration 1000.0 nM
[3] = biological target: Myosin light chain kinase family member 4 (Homo sapiens) (UniProt Q86YV6); settings: Compound concentration 1000.0 nM
[4] = tested on: Receptor-type tyrosine-protein kinase FLT3 (Homo sapiens), P36888 [UNDEFINED MUTATION]; settings: Compound concentration 1000.0 nM
[5] = biological target: Dual specificity tyrosine-phosphorylation-regulated kinase 1A (Homo sapiens) (UniProt Q13627); settings: Compound concentration 1000.0 nM
[6] = biological target: Mitogen-activated protein kinase kinase kinase 1 (Homo sapiens) (UniProt Q13233); settings: Compound concentration 1000.0 nM
[7] = biological target: Serine/threonine-protein kinase 38-like (Homo sapiens) (UniProt Q9Y2H1); settings: Compound concentration 1000.0 nM
[8] = tested on: Phosphatidylinositol 4,5-bisphosphate 3-kinase catalytic subunit alpha isoform (Homo sapiens), P42336 [C420R]; settings: Compound concentration 1000.0 nM
Chain of Phosphatidylinositol 4,5-bisphosphate 3-kinase catalytic subunit alpha isoform (Homo sapiens), P42336 [C420R] (P42336 whole entry C420R, canonical isoform): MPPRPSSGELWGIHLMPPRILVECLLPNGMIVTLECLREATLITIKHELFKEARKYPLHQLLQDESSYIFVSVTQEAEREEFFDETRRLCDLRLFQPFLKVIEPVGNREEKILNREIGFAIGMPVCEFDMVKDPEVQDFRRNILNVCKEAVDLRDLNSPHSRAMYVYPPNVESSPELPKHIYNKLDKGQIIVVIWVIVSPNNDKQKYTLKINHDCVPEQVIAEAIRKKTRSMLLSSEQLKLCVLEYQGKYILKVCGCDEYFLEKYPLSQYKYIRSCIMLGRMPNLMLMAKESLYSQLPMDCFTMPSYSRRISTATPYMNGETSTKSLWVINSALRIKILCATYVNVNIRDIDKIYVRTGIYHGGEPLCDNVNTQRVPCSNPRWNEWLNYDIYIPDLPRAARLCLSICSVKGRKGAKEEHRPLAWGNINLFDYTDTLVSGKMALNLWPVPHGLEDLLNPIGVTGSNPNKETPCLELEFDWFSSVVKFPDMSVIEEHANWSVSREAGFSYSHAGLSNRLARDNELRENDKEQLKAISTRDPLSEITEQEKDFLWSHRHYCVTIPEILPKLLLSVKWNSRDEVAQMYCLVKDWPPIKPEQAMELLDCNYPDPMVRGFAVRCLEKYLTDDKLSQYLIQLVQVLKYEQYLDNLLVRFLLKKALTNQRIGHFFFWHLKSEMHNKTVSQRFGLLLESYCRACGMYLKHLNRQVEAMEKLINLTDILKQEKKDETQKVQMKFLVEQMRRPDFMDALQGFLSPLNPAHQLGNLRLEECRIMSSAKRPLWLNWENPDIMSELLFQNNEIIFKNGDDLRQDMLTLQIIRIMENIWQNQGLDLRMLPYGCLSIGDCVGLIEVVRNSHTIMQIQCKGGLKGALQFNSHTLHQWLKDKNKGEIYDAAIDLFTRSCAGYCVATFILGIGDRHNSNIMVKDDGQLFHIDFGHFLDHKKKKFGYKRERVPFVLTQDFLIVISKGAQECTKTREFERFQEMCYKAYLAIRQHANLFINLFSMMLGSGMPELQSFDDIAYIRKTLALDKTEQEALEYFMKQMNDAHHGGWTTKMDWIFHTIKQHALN

[9] = biological target: Acetylcholinesterase (Homo sapiens) (UniProt P22303); assay: acetylcholinesterase (h) CEREP ligand profiling; settings: Compound concentration 10.0 uM
[10] = biological target: Sulfonylurea receptors; K-ATP channels (Homo sapiens) (UniProt Q14654+O60706+Q09428+Q15842); assay: KATP channel CEREP ligand profiling; assay type: protein-complex assay; settings: filed as antagonist; Compound concentration 10.0 uM
[11] = biological target: Serine/threonine-protein kinase 4 (Homo sapiens) (UniProt Q13043); settings: Compound concentration 1000.0 nM
[12] = biological target: STE20/SPS1-related proline-alanine-rich protein kinase (Homo sapiens) (UniProt Q9UEW8); settings: Compound concentration 1000.0 nM
[13] = biological target: Cyclin-dependent kinase 4 (Homo sapiens) (UniProt P11802); settings: Compound concentration 1000.0 nM
Chain of Cyclin-dependent kinase 4 (Homo sapiens) (P11802 whole entry): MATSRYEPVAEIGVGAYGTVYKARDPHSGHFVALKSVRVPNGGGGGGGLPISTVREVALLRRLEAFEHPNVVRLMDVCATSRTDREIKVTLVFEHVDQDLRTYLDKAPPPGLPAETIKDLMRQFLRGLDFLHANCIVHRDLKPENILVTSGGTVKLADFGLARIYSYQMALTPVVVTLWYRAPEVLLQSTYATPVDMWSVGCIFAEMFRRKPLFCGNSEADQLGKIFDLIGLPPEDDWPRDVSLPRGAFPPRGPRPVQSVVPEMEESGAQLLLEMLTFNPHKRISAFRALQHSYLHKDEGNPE

[14] = biological target: Ephrin type-A receptor 7 (Homo sapiens) (UniProt Q15375); settings: Compound concentration 1000.0 nM
[15] = biological target: Dual specificity mitogen-activated protein kinase kinase 6 (Homo sapiens) (UniProt P52564); settings: Compound concentration 1000.0 nM
Chain of Dual specificity mitogen-activated protein kinase kinase 6 (Homo sapiens) (P52564 whole entry): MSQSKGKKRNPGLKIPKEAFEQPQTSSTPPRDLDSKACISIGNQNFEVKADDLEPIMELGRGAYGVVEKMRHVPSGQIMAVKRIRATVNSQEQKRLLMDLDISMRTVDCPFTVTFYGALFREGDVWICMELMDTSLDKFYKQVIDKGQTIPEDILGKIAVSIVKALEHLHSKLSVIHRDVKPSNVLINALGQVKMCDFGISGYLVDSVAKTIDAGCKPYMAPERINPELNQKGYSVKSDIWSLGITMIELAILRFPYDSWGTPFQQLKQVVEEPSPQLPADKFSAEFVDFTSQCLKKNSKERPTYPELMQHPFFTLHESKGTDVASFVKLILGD

[16] = tested on: Epidermal growth factor receptor (Homo sapiens), P00533 [L861Q]; settings: Compound concentration 1000.0 nM
[17] = biological target: Phosphatidylinositol 4,5-bisphosphate 3-kinase catalytic subunit gamma isoform (Homo sapiens) (UniProt P48736); settings: Compound concentration 1000.0 nM
[18] = biological target: Serine/threonine-protein kinase Sgk2 (Homo sapiens) (UniProt Q9HBY8); settings: Compound concentration 1000.0 nM
[19] = biological target: MAP/microtubule affinity-regulating kinase 3 (Homo sapiens) (UniProt P27448); settings: Compound concentration 1000.0 nM
[20] = biological target: Tyrosine-protein kinase receptor TYRO3 (Homo sapiens) (UniProt Q06418); settings: Compound concentration 1000.0 nM
[21] = biological target: Mitogen-activated protein kinase 13 (Homo sapiens) (UniProt O15264); settings: Compound concentration 1000.0 nM
[22] = biological target: Dual specificity protein kinase CLK2 (Homo sapiens) (UniProt P49760); settings: Compound concentration 1000.0 nM
[23] = biological target: Myosin-IIIa (Homo sapiens) (UniProt Q8NEV4); settings: Compound concentration 1000.0 nM
Chain of Myosin-IIIa (Homo sapiens) (Q8NEV4 whole entry): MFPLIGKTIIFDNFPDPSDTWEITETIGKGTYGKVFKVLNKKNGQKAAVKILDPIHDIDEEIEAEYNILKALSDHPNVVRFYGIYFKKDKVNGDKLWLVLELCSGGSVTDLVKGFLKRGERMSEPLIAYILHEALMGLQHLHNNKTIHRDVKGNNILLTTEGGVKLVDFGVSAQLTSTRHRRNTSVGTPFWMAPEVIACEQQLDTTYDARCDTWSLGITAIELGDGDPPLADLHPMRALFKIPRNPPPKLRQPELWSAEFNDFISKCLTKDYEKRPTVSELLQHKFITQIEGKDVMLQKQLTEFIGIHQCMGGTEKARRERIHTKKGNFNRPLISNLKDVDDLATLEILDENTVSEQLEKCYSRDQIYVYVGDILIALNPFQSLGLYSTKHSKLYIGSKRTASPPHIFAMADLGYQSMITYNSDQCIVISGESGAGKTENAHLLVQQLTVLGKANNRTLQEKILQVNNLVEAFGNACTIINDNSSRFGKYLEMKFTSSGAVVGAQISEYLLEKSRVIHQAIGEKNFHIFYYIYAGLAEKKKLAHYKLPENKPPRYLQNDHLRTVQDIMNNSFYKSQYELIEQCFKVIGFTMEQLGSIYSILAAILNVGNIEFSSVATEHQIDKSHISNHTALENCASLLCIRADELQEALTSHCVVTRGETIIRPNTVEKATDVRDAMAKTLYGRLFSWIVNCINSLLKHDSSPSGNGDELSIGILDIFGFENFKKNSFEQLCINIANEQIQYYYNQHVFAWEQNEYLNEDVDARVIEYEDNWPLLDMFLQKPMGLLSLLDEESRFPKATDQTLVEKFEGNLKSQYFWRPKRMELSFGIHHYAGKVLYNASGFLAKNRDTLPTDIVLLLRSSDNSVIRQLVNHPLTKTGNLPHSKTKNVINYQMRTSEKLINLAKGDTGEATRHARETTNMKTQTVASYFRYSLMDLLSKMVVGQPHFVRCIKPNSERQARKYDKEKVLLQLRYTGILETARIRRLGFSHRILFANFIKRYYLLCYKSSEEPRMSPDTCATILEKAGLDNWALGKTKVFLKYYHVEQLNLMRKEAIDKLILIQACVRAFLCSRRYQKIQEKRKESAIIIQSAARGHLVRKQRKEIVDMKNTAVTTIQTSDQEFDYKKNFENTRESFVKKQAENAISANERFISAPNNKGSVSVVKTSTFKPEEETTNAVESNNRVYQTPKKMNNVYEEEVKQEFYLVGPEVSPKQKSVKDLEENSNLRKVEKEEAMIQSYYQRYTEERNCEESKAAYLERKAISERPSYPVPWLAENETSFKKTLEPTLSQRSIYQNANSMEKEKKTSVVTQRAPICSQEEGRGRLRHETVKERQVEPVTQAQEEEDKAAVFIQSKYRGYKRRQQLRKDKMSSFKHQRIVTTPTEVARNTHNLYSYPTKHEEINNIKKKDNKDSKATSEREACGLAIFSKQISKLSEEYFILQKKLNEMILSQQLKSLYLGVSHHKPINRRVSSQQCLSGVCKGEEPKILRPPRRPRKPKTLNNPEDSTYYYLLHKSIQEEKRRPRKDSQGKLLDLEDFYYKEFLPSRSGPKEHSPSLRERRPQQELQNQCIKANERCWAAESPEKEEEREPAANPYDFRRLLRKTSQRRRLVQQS

[24] = biological target: SRSF protein kinase 1 (Homo sapiens) (UniProt Q96SB4); settings: Compound concentration 1000.0 nM
[25] = biological target: Inhibitor of nuclear factor kappa-B kinase subunit beta (Homo sapiens) (UniProt O14920); settings: Compound concentration 1000.0 nM
[26] = biological target: Cyclin-dependent kinase 14 (Homo sapiens) (UniProt O94921); settings: Compound concentration 1000.0 nM
[27] = tested on: Mast/stem cell growth factor receptor Kit (Homo sapiens), P10721 [V559D]; settings: Compound concentration 1000.0 nM
[28] = biological target: Insulin receptor-related protein (Homo sapiens) (UniProt P14616); settings: Compound concentration 1000.0 nM
Chain of Insulin receptor-related protein (Homo sapiens) (P14616 27-742 limits assumed): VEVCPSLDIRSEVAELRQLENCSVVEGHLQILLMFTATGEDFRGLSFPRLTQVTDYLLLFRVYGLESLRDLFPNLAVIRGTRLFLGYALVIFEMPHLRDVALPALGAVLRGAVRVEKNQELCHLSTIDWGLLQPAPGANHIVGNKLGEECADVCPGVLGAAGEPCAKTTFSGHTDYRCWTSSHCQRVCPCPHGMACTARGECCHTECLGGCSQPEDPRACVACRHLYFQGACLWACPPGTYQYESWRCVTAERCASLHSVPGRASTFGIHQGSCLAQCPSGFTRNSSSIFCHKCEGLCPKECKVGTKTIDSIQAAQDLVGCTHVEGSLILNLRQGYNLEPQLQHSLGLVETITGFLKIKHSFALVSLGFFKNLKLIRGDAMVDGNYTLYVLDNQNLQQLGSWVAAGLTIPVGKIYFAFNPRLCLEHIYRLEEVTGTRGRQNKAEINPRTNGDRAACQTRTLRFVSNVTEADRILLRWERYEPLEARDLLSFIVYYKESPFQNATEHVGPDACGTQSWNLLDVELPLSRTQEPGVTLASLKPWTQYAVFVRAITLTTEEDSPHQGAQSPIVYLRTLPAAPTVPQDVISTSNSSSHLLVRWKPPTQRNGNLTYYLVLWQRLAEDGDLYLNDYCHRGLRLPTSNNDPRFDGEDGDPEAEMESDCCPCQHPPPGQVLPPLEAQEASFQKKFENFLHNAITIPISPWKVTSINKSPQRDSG
Chain of Insulin receptor-related protein (Homo sapiens) (P14616 747-1297 limits assumed): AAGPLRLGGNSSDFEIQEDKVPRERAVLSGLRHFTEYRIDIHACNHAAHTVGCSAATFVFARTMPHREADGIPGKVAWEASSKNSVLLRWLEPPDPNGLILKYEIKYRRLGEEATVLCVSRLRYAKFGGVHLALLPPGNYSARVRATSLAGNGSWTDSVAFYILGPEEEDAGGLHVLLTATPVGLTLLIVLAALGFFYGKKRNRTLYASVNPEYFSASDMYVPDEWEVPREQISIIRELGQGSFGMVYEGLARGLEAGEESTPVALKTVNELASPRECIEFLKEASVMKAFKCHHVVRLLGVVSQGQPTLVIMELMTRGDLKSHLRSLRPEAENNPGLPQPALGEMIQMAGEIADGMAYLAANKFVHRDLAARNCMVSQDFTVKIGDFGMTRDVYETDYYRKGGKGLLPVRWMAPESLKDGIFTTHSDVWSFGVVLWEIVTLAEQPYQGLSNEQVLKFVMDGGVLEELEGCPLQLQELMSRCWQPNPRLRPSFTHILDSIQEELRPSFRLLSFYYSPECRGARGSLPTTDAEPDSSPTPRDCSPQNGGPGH

[29] = biological target: Eukaryotic translation initiation factor 2-alpha kinase 1 (Homo sapiens) (UniProt Q9BQI3); settings: Compound concentration 1000.0 nM
[30] = biological target: Kappa-type opioid receptor (Homo sapiens) (UniProt P41145); assay: kappa (KOP) CEREP ligand profiling; settings: filed as agonist; Compound concentration 10.0 uM
[31] = biological target: Calcium-dependent protein kinase 1 (Plasmodium falciparum) (UniProt P62344); settings: Compound concentration 1000.0 nM
[32] = biological target: Sodium-dependent dopamine transporter (Homo sapiens, UniProt Q01959); assay: dopamine transporter (h) CEREP ligand profiling; settings: filed as antagonist, Compound concentration 10.0 uM
[33] = biological target: Ribosomal protein S6 kinase alpha-5 (Homo sapiens) (UniProt O75582); settings: Compound concentration 1000.0 nM
[34] = biological target: Serine/threonine-protein kinase MARK1 (Homo sapiens) (UniProt Q9P0L2); settings: Compound concentration 1000.0 nM
[35] = biological target: Serine/threonine-protein kinase ULK2 (Homo sapiens) (UniProt Q8IYT8); settings: Compound concentration 1000.0 nM
[36] = biological target: Vasopressin V1a receptor (Homo sapiens) (UniProt P37288); assay: V1a (h) CEREP ligand profiling; settings: filed as agonist, Compound concentration 10.0 uM
[37] = tested on: Receptor-type tyrosine-protein kinase FLT3 (Homo sapiens), P36888 [R834Q]; settings: Compound concentration 1000.0 nM
[38] = biological target: Muscarinic acetylcholine receptor M3 (Homo sapiens) (UniProt P20309); settings: Compound concentration 10.0 uM
[39] = biological target: Mitogen-activated protein kinase kinase kinase 12 (Homo sapiens) (UniProt Q12852); settings: Compound concentration 1000.0 nM
[40] = biological target: Aurora kinase A (Homo sapiens) (UniProt O14965); settings: Compound concentration 1000.0 nM
Chain of Aurora kinase A (Homo sapiens) (O14965 whole entry): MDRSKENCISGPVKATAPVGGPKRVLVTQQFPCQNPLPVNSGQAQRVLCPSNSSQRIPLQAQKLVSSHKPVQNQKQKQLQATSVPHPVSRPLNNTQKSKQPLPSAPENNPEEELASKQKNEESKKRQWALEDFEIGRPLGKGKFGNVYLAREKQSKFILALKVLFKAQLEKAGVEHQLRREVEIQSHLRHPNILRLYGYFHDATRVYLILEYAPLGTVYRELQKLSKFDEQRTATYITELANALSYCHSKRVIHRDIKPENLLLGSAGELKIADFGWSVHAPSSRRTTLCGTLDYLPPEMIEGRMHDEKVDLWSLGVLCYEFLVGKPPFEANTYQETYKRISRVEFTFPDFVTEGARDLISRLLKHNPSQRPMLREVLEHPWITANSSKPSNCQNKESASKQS

[41] = biological target: Ribosomal protein S6 kinase beta-1 (Homo sapiens) (UniProt P23443); settings: Compound concentration 1000.0 nM
[42] = biological target: Serine/threonine-protein kinase WNK4 (Homo sapiens) (UniProt Q96J92); settings: Compound concentration 1000.0 nM

CNC(=O)Nc1ccc2c(c1)CC[C@@]21OC(=O)N(CC(=O)N(Cc2ccc(F)cc2)[C@@H](C)C(F)(F)F)C1=O [A-485]
inactive: residual activity [1] 90% | residual activity [2] 100% | residual activity [3] 70% | residual activity [4] 87% | residual activity [5] 64% | residual activity [6] 68% | residual activity [7] 66% | residual activity [8] 80% | inhibition [9] -1% | inhibition [10] 24% | residual activity [11] 100% | residual activity [12] 100% | residual activity [13] 91% | residual activity [14] 88% | residual activity [15] 100% | residual activity [16] 94% | residual activity [17] 95% | residual activity [18] 100% | residual activity [19] 100% | residual activity [20] 81% | residual activity [21] 83% | residual activity [22] 97% | residual activity [23] 100% | residual activity [24] 95% | residual activity [25] 83% | residual activity [26] 79% | residual activity [27] 100% | residual activity [28] 96% | residual activity [29] 80% | inhibition [30] 28% | residual activity [31] 83% | inhibition [32] 94% | residual activity [33] 63% | residual activity [34] 89% | residual activity [35] 82% | inhibition [36] 10% | residual activity [37] 92% | inhibition [38] 9.06% | residual activity [39] 100% | residual activity [40] 80% | residual activity [41] 100% | residual activity [42] 73%

CNC(=O)Nc1ccc2c(c1)[C@@]1(CC2)OC(=O)N(CC(=O)N(Cc2ccc(F)cc2)[C@@H](C)C(F)(F)F)C1=O [A-486]
inactive: residual activity [1] 67% | residual activity [2] 100% | residual activity [3] 100% | residual activity [4] 87% | residual activity [5] 77% | residual activity [6] 95% | residual activity [7] 67% | residual activity [8] 80% | inhibition [9] 8% | inhibition [10] 19% | residual activity [11] 100% | residual activity [12] 100% | residual activity [13] 75% | residual activity [14] 100% | residual activity [15] 100% | residual activity [16] 100% | residual activity [17] 64% | residual activity [18] 88% | residual activity [19] 100% | residual activity [20] 70% | residual activity [21] 97% | residual activity [22] 100% | residual activity [23] 100% | residual activity [24] 100% | residual activity [25] 92% | residual activity [26] 100% | residual activity [27] 100% | residual activity [28] 100% | residual activity [29] 96% | inhibition [30] 12% | residual activity [31] 93% | inhibition [32] 27% | residual activity [33] 72% | residual activity [34] 100% | residual activity [35] 100% | inhibition [36] 23% | residual activity [37] 96% | inhibition [38] 8.23% | residual activity [39] 100% | residual activity [40] 79% | residual activity [41] 100% | residual activity [42] 100%
